From patent publication US8636978B2, “Cyclized NGR peptide compounds, compositions, and methods of their use” (The United States of America, as Represented by the …, priority 2008, dated 2014)
Residues, ends and D or L forms follow the SMILES beside them. No end group written: not given here. *: point of attachment. OregonGreen488(6-carbonyl) = O=C1OC2(c3cc(F)c(O)cc3Oc3cc(O)c(F)cc32)c2cc(C(=O)*)ccc21

What was measured:
[1] = system: CD13-positive HT-1080 cells
HT-1080 (CD13+) cells = test: Cell binding by epifluorescent microscopy, CD13-positive cells; assay type: cell-based, human; conditions: 37° C.
Method: (§1) Human fibrosarcoma (HT-1080) and human adenocarcinoma (MCF7) cells were purchased from American Type Culture Collection (ATCC, Manassas, Va.). HT-1080 cells were grown in MEME (ATCC) supplemented with 10% fetal bovine serum (ATCC), and MCF7 cells were grown in the same culture medium with the addition of 0.01 mg/mL bovine insulin (Sigma-Aldrich, St. Louis, Mo.). Both cell lines were maintained in a 5% CO2 incubator at 37° C. Anti-CD13 monoclonal antibody (WM15, Alexa Fluor 488-conjugated) was obtained from AbD Serotec (Raleigh, N.C.).
(§2) Cellular binding of cK(OG)NGRE to the CD13/APN marker was assessed by plating HT-1080 (CD13+) and MCF7 (CD13−) cells in eight-chambered slides (LabTekII, Nunc, Rochester, N.Y.) at a concentration of 15,000 cells/well. After 24 h, cells were washed once with phosphate-buffered saline (PBS) and incubated in complete culture media at 37° C. for 30 min with either cK(OG)NGRE (20 μM) or the anti-CD13 antibody (final concentration 2.5 μg/mL). Slides were washed twice with PBS for 5 min, fixed in 4% paraformaldehyde for 20 min, and mounted with Prolong Gold antifade reagent with DAPI (Invitrogen, Carlsbad, Calif.) and imaged with an epifluorescent microscope (Zeiss Axio Imager.M1, Thornwood, N.Y.) after 24 h. […]

MCF7 (CD13−) cells = test: Cell binding by epifluorescent microscopy, CD13-negative cells; assay type: cell-based, human; conditions: cK(OG)NGRE 20 μM or anti-CD13 antibody 2.5 μg/mL, 37° C., 30 min
Method: as §1, §2

EC50 [1]	Compound	in vitro binding to HT-1080 cells (fluorescence micrographs) (HT-1080 (CD13+) cells; cK(OG)NGRE 20 μM or anti-CD13 antibody 2.5 μg/mL, 30 min)	localization of fluorescence in HT-1080 cells (HT-1080 (CD13+) cells; epifluorescent microscopy, 30 min incubation)	in vitro binding to MCF7 cells (fluorescence micrographs) (MCF7 (CD13−) cells)
61 µM	N=C(N)NCCC[C@@H]1NC(=O)CNC(=O)[C@H](CC(N)=O)NC(=O)[C@H](CCCCNC(=O)c2ccc3c(c2)C2(OC3=O)c3cc(F)c(O)cc3Oc3cc(O)c(F)cc32)NC(=O)[C@H](CCC(N)=O)NC1=O [cK(OG)NGRE] (cyclo(K(OregonGreen488(6-carbonyl))NGRQ))	clearly demonstrated binding	internalization of the peptide	minimal binding
220 µM	KNGRE [reference compound]			
